Peptide text beside a SMILES is read from it. * marks the point of attachment. X1 = CSCC[C@H](NC(=O)[C@H](CC(C)C)NC(=O)CNC(=O)C(/C=C/[C@H](Cc1ccccc1)N*)(Cc1ccccc1)Cc1ccccc1)C(N)=O
Experiments:
[1] = Ability to inhibit substance P endopeptidase at concentration of 1.5 uM
[2] = Ability to inhibit substance P endopeptidase at concentration of 10 uM

inhibition [1] [%]	inhibition [2] [%]	SMILES
50	–	N[C@H](/C=C/C(CO)(Cc1ccccc1)Cc1ccccc1)Cc1ccccc1
–	50	CSCC[C@H](NC(=O)[C@H](CC(C)C)NC(=O)CNC(=O)C(/C=C/[C@H](Cc1ccccc1)NC(=O)[C@H](CCC(N)=O)NC(=O)[C@H](CCC(N)=O)NC(=O)[C@@H]1CCCN1C(=O)[C@H](CCCCN)NC(=O)[C@@H]1CCCN1C(=O)[C@@H](N)CCCN=C(N)N)(Cc1ccccc1)Cc1ccccc1)C(N)=O (H-RPKPQQ-X1)
